Experimental data published in patent US20030185792A1, “Morphogen analogs of bone morphogenic proteins” (Curis, Inc., priority 1996, published 2003).
“Also recorded” adds a separate entry of the source. Bridge positions count the residues as written; N and C are the ends. Ends that are not written are not given here.

What was measured:
[1] = tested on: ROS cells; test: ROS cell based alkaline phosphatase bioassay; design: species or system rat; conditions: for effect on OP-1 induced cell responsiveness (agonist/antagonist behaviour): peptide together with OP-1; for IC50: peptide together with OP-1 (1.33 nM), read-out: peptide concentration giving 50% inhibition of cellular responsiveness to OP-1; for effect on basal cell responsiveness (alkaline phosphatase activity): no OP-1
Procedure: In a first series of experiments, increasing concentrations of peptides F2-2 (FIG. 9A), F2-3 (FIG. 9B), Hn-2 (FIG. 9C) and Hc-2 (FIG. 9D) were added to ROS cells either alone (open bars) or in combination with 40 ng/ml soluble OP-1 (filled bars) and their effect on alkaline phosphatase activity measured. Soluble OP-1 is the form of OP-1 in which the pro-domain is still attached to the mature portion of OP-1 (see WO 94/03600). A basal alkaline phosphatase activity is shown by the line and represents the alkaline phosphatase activity of cells incubated in the absence of both soluble OP-1 and peptide.
(§1) Assay of peptides: The receptor-binding activities of OP-1 synthetic peptides were determined by a radio-ligand receptor assay using ^125I-labeled OP-1 as ligand, and an OP-1 receptor-enriched plasma membrane fraction of ROS cells. The assay is based on competition between radiolabeled OP-1 and unlabeled OP-1 or peptide for binding to membrane-bound receptor. A well characterized ROS cell based in vitro bio-assay was used to examine the effects of OP-1 peptides on basal as well as OP-1 induced cellular alkaline phosphatase activity.
i. ROS Cell Based Alkaline Phosphatase Assay: OP-1 synthetic peptides that bind OP-1 receptors are further analyzed by in vitro bioassay. This allows defining the role of OP-1 peptides at the receptor-binding site. Some of the OP-1 peptides that effectively interact with receptors could inhibit OP-1 induced target cell responsiveness, thereby acting as functional antagonists. Alternatively, they may mimic OP-1 functions inducing alkaline phosphatase activity in ROS cells. Creative BioMolecules has developed and fully validated ROS cell in vitro assay for OP-1. An assay procedure as described earlier is essentially followed to determine the biological activities of OP-1 peptides. In a typical experiment, rat Osteosarcoma (17/2.8) cells are plated in 96 well plates (3.0×10^4 cells/well) and incubated overnight at 37° C. in 5-6% CO2 incubator. Next day, the plates are examined to make sure that cells are healthy & confluent. Cells are treated with increasing concentrations of OP-1 standard (1-10,000 ng/ml) or OP-1 synthetic peptides (0.02-200 μM) alone or with OP-1 standard prepared in medium containing 1% FBS and incubated for 2 days at 37° C. in 5-6% CO2 incubator. The cellular content of alkaline phosphatase activity is determined by the method of Reddi and Huggins. Enzyme estimations are routinely carried out in 96 well plates. Following removal of culture medium, cells are washed with pre-warmed PBS (150 μl) and further incubated in 100 ul of pre-warmed 1% Triton X-100 for 30 minutes at 37 C. Plates are centrifuged for 10 minutes at full speed, and recovered samples (each 15 μl) are assayed for enzyme activity by adding 90 ul p-nitrophenyl phosphate (Sigma) as a substrate in 0.05 M glycine-NaOH buffer, pH 9.3 and incubating for 20 minutes at 37° C. The reaction is stopped by adding 75 μl of 0.2 N NaOH/well and absorbance at 405/490 nm is measured on a Dynatech MR 700 plate reader. Results are expressed as concentration of peptide inhibitor (with antagonist activity) required to give 50% inhibition of maximum response to OP-1 standard. On the other hand, the activities of peptides that stimulate cell responsiveness (with agonist activity) are expressed relative to OP-1 standard. FIG. 23 illustrates the dose-related effects of OP-1 preparations on stimulation of alkaline phosphatase activity as determined in ROS cell based in vitro assay.

[2] = tested on: OP-1 receptor-enriched plasma membrane fraction of ROS cells; test: Radioligand receptor assay: displacement of 125I-labeled OP-1 from ROS cell plasma membranes; type: binding, rat; conditions: for effect on binding of 125I-labeled OP-1 to the receptor: Example 3; for ability to displace 125I-labeled soluble OP-1 from ROS cell membranes: Example 2, FIGS. 10A and 10B
Procedure: In a second series of experiments, the ability of unlabeled soluble OP-1 and unlabeled peptides F1-2, F2-2, F2-3, H-n2 and H-c2 to displace ^125I labeled soluble OP-1 from ROS cell membranes was measured. The activities of peptides F2-2 and F2-3 relative to soluble OP-1 are shown in FIG. 10A, and the activities of peptides Fi-2, H-n2 and H-c2 relative to soluble OP-1 are shown in FIG. 10B. OP-1 receptor-enriched plasma membranes of ROS cells were incubated for 20 hrs at 4° C. with ^125I-labeled soluble OP-1 and unlabeled peptide. Receptor bound material was separated from unbound material by centrifugation at 39,500×g. The resulting pellet was harvested and washed with 50 mM HEPES buffer, pH 7.4 containing 5 mM MgCl2 and 1 mM CaCl2 Radioactivity remaining in the pellet was determined by means of a gamma counter.
as §1
i. Radio-receptor Assay: The receptor-binding activities of various OP-1 synthetic peptides can be determined by an equilibrium displacement binding isotherm assay using ^125I-labeled OP-1 as ligand and OP-1 receptor-enriched plasma membrane fraction of ROS cells. Highly purified OP-1 can be radioiodinated to a specific activity of 70-78 μCi/ug by a modified procedure of lactoperoxidase method. The percent bindability of radioiodinated OP-1 to excess receptor is 30-37%. Plasma membranes enriched with OP-1 receptors from ROS cells can be isolated as is known in the art. […] In a typical assay, fixed amounts of ^125I-labeled sol. OP-1 (˜80,000 cpm) are incubated with fixed amount of receptor-enriched plasma membrane fraction in the presence (5 μg, for non-specific binding) or absence of excess unlabeled OP-1 (for total binding). Displacement curves are generated with increasing concentrations of OP-1 peptide (0.032-50 μM) or OP-1 standard preparation (5-2000 ng). The assay incubations are carried out in a reaction volume of 300 μl with shaking for 22 hrs. at 4° C. Separation of bound and free ^125I-labeled OP-1 is by centrifugation (39,500×g, 30 minutes). The supernatants are aspirated and pellets are washed before counting in a gamma counter (Packard Instr., Downers Grove, Ill.). The concentration of OP-1 peptide required to give 50% inhibition of total specific binding of ^125I-labeled OP-1 (ED50) is calculated from competitive data.

[3] = biological target: OP-1 receptor of ROS cells (OP-1 receptor-enriched plasma membrane fraction of ROS cells) (rat)
[4] = biological target: OP-1 receptor of ROS cells (OP-1 receptor-enriched plasma membrane fraction of ROS cells) (rat); test: binding of ^125I-OP-1 to excess receptor (ROS cell plasma membranes)
[5] = biological target: OP-1 receptor of ROS cells (OP-1 receptor-enriched plasma membrane fraction of ROS cells) (rat); test: equilibrium binding of ^125I-OP-1 to OP-1 receptor-enriched ROS cell plasma membranes

Row | Molecule | IC50 ([1]; Example 3) [µM] | effect on OP-1 induced cell responsiveness (agonist/antagonist behaviour) ([1]; Example 3) | effect on binding of 125I-labeled OP-1 to the receptor [2] | effect on basal cell responsiveness (alkaline phosphatase activity) ([1]; Example 3, peptide alone) | ability to displace 125I-labeled soluble OP-1 from ROS cell membranes [2] | other results
1 | F2-1: SEQ ID No. 16; covers the entire finger 2 region of OP-1, cyclized close to the knot region (CLNAISVLYFDDSSNVILKKYRNMVVRC; disulfide 1-28 (inferred); listed as Homo sapiens) | 8 | effectively inhibited |  | effectively inhibited |  | 
2 | F2-2: SEQ ID No. 17; 9 residues at the tip of finger 2 including 2 Asp residues, ends cyclized (CYFDDSSNVIC; cyclized; listed as Homo sapiens) |  | weak agonist; also recorded: potentiating the cell responsiveness to OP-1 | effectively competed |  | cannot completely displace | behaviour in the alkaline phosphatase assay (agonist/antagonist) ([1]; Example 2, alone or with 40 ng/ml soluble OP-1): weak OP-1 agonists; effect on responsiveness to OP-1 ([1]; Example 3, at higher peptide concentrations (above 0.6-60 μM)): inhibited the responsiveness to OP-1; potentiation of OP-1 induced cell responsiveness ([1]; Example 3, peptide 0.6-60 μM, FIG. 16): 20%; peptide concentrations at which OP-1 induced responsiveness is potentiated ([1]; Example 3, with OP-1): 0.6 to 60 µM; increase of alkaline phosphatase activity relative to soluble OP-1 alone ([1]; peptide about 60 μM with 40 ng/ml soluble OP-1, FIG. 9A): about 20%; effect on basal alkaline phosphatase level ([1]; peptide alone, about 60 μM, Example 2, FIG. 9A): double
3 | F2-2c: SEQ ID No. 18; control cyclized peptide, 9 residues of F2-2 in reverse order (CIVNSSDDFYC; disulfide 1-11 (inferred); listed as Homo sapiens) [reference compound] |  | no effect | inactive | no effect |  | 
4 | H-1: SEQ ID No. 11; covers the whole Heel region, cyclized near the knot region (CAFPLNSYMNATNHAIVQTLVHFINPETVPKC; disulfide 1-32 (inferred); listed as Homo sapiens) |  | weak antagonist; also recorded: antagonists | interfered | effective only at very high concentrations |  | peptide concentrations required to inhibit the OP-1 induced cell response ([1]; Example 3, with OP-1): 44 to 220 µM
5 | H-C2: SEQ ID No. 13; 7 residues (plus Cys) in the loop on the C-terminal end of the Heel helix (CCFINPETVCC; listed as Homo sapiens) | 5 | antagonists | interfered | inhibiting the basal | little or no ability to displace | overall judgement of activity (lead peptides) ([1]; Example 3 summary, antagonistic (H-C2) and modulating (F2-3) activity): highly active; peptide concentration at which the activity of soluble OP-1 is antagonized ([1]; with 40 ng/ml soluble OP-1, FIG. 9D): greater than 5 μM; effect on binding of 125I-labeled OP-1 to the receptor ([2]; peptide at 8 μM, FIG. 14): potentiated
6 | H-N2: SEQ ID No. 12; 11 residues (plus Cys) in the loop on the N-terminal end of the Heel helix (CLNSYMNATNHAC; listed as Homo sapiens) |  | not effective | failed to inhibit | not effective | little or no ability to displace | effect on alkaline phosphatase activity ([1]; either alone or in combination with soluble OP-1, FIG. 9C): little or no effect
7 | CELYVSFRDLGWQDWIIAPEGYAAYC (disulfide 1-26) [Peptide F1-1] |  |  |  |  |  | IC50 (peptide concentration giving 50% inhibition of cellular responsiveness to OP-1), ROS cell alkaline phosphatase [3]: 20 µM
8 | OP-1 (osteogenic protein-1), mature human OP-1 (ligand, radio-iodinated (^125I) when used as tracer; unlabeled when used as competitor or in the bioassay) CKKHELYVSFRDLGWQDWIIAPEGYAAYYCEGECAFPLNSYMNATNHAIVQTLVHFINPETVPKPCCAPTQLNAISVLYFDDSSNVILKKYRNMVVRACGCH |  |  |  |  |  | percent bindability to excess receptor [4]: 30 to 37%; Ka [5]: 4.38e+09 M⁻¹; average OP-1 binding capacity (pmol/mg protein) [5]: 3.6

More lines, main results first:

Row | IC50 ([1]; Example 3) [µM] | Molecule | effect on OP-1 induced cell responsiveness (agonist/antagonist behaviour) ([1]; Example 3) | effect on binding of 125I-labeled OP-1 to the receptor [2] | effect on basal cell responsiveness (alkaline phosphatase activity) ([1]; Example 3, peptide alone) | ability to displace 125I-labeled soluble OP-1 from ROS cell membranes [2] | other results
9 | 20 | F1-1: SEQ ID No. 5; cyclized peptide covering the complete finger 1 region of OP-1 (CELYVSFRDLGWQDWIIAPEGYAAYC; cyclized; listed as Homo sapiens) | antagonists | interfered |  |  | peptide concentrations effective to inhibit basal cellular responsiveness ([1]; Example 3, peptide alone): 52 to 260 µM
10 | 10 | F1-2: SEQ ID No. 6; 15-residue finger 1 loop region peptide cyclized at the ends (CFRDLGWQDWIIAPC; cyclized; listed as Homo sapiens) | relatively weak antagonist | relatively weak activity | weakly inhibiting | little or no ability to displace | effect on OP-1 induced cell responsiveness (agonist/antagonist behaviour) ([1]; Example 3, listed as Fi-2): antagonists; peptide concentration required to inhibit binding of 125I-labeled OP-1 to the receptor ([2]; Example 3, FIG. 14): 179 µM; effect on binding of 125I-labeled OP-1 to the receptor ([2]; listed as Fi-2): interfered
